Six molecules from US20230339978A1, “COMPOUNDS FOR PREVENTION OR TREATMENT OF NEURODEGENERATIVE DISORDERS” (1ST Biotherapeutics, Inc., priority 2020, published 2023) can be followed below.

SMILES strings stand for the structures. Read-outs that look alike come from different tables or passages of the source.

The target in experiment [1] is GST-tagged recombinant human RIPK2 (Homo sapiens (Human), UniProt O43353). In words: RIP2 Kinase Assay (ADP-Glo). The class given is biochemical. Conditions: 25 µM ATP, MBP substrate, 30° C. 60 minutes.
Chain of GST-tagged recombinant human RIPK2 (O43353 whole entry): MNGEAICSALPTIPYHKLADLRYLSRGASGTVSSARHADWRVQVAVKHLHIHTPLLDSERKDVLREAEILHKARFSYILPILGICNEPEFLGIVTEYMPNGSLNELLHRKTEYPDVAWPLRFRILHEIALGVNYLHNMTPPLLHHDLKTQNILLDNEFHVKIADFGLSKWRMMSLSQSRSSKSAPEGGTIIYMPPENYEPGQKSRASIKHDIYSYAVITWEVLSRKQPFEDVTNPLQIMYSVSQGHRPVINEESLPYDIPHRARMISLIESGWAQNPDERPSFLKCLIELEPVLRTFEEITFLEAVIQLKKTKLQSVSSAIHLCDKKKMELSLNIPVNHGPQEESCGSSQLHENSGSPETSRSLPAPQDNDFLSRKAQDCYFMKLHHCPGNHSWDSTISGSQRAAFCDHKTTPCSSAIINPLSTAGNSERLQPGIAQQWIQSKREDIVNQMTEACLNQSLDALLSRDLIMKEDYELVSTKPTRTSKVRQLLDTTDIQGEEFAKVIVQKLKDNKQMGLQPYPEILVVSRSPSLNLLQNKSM
Experimental: GST-tagged recombinant human RIPK2(25 ng) is incubated with 5 µL of compounds (0.5% DMSO), 5 µL of MBP (0.5 µg/µl) and 5 µL of ATP (25 µM) in buffer (40 mM Tris, 7.5; 20 mM MgCl2; 0.1 mg/ml BSA; 50 µM DTT). The assay was started by incubating the reaction mixture in a 96-well plate at 30° C. for 60 minutes. After the incubation, 25 µL ADP-Glo reagent was added, and the reaction was incubated at 30° C. for 40 minutes to stop the reaction and degrade residual ATP. The ADP product was then converted to ATP by adding 50 µL per well of detection reagent. Luminescence was detected after 30 minutes room temperature incubation with the Molecular device I3X plate reader. The IC50 values were calculated from a series of percent inhibition values determined at a range of inhibitor concentration using software routines as implemented in the GraphPad Prism 7 software or SigmaPlot 13.0.
The subject of experiment [2] is IL-6 secretion in BV-2 cell. The experiment in a line: IL-6 Secretion in BV-2 Cell (L18-MDP stimulated, ELISA). The class given is cell-based. The settings on record: BV-2 mouse microglia cells, 10 µg/ml L18-MDP, 24 hr. The procedure:
IL-6 Secretion in BV-2 Cell
BV-2 mouse microglia cells were kindly provided from Dr. Bae in Korea Institute of Science and Technology (KIST). BV-2 cells were thawed and suspended in Dulbecco’s modified eagle medium (DMEM) supplemented with 10% fetal bovine serum (FBS) and 1% Penicillin/Streptomycin. Cells were seeded into 96 well plates at 2X10^4 cells/well and allowed to attach for 24 hr. On the day of the experiment, various concentration of compounds were treated, and cells were stimulated with 10 µg/ml L18-MDP. After 24 hr incubation, supernatant was collected for cytokine assay.
Absorbance at 450 nm was measured using SpectraMax I3X microplate reader (Molecular Device). Values of media-only wells were subtracted and % inhibition for each compound concentration relative to the DMSO/L18-MDP-treated controls (100%) was calculated.
On the technique in general: In an ELISA, binding on a coated surface is turned into a signal by an enzyme label.

For experiment [3], the target named is LRRK2 G2019S (Homo sapiens (Human), UniProt Q5S007, G2019S). The experiment in a line: LRRK2 G2019S kinase assay (Adapta). The class given is biochemical. Conditions: 100 µM ATP, LRRKtide substrate; read-out: LRRK2_G2019S IC50. As for the experimental part:
(§1) LRRK2 and LRRK2 G2019S Kinase Assay
(§2) The LRRK2 and LRRK2 G2019S kinase assays were performed using the AdaptaTM technology in ThermoFisher Scientific. This experiment was carried out according to the supplier’s protocol. Briefly, assay conditions were as follows. The mixture of substrate (LRRKtide) and each kinase was prepared in 50 mM Tris pH 8.5, 0.01% BRIJ-35, 10 mM MgCl2, 1 mM EGTA, 0.02% NaN3. Assays were performed in the presence of 70 µM ATP and 100 µM ATP (KmATP) in LRRK2 and LRRK2 G2019S, respectively. The reaction was progressed at room temperature for 1 hour. Upon completion of kinase reaction, 5 µL of Detection Mix was added and after 60 min incubation time, the emission ratio of 665/615 nm was calculated

Experiment [4] deals with T1, His-tagged recombinant human ABL1 (Homo sapiens (Human), UniProt P00519). The settings on record: read-out: c-Abl IC50; 25 µM ATP, Abltide substrate, 30° C. 30-min.
T1 sequence (P00519 whole entry): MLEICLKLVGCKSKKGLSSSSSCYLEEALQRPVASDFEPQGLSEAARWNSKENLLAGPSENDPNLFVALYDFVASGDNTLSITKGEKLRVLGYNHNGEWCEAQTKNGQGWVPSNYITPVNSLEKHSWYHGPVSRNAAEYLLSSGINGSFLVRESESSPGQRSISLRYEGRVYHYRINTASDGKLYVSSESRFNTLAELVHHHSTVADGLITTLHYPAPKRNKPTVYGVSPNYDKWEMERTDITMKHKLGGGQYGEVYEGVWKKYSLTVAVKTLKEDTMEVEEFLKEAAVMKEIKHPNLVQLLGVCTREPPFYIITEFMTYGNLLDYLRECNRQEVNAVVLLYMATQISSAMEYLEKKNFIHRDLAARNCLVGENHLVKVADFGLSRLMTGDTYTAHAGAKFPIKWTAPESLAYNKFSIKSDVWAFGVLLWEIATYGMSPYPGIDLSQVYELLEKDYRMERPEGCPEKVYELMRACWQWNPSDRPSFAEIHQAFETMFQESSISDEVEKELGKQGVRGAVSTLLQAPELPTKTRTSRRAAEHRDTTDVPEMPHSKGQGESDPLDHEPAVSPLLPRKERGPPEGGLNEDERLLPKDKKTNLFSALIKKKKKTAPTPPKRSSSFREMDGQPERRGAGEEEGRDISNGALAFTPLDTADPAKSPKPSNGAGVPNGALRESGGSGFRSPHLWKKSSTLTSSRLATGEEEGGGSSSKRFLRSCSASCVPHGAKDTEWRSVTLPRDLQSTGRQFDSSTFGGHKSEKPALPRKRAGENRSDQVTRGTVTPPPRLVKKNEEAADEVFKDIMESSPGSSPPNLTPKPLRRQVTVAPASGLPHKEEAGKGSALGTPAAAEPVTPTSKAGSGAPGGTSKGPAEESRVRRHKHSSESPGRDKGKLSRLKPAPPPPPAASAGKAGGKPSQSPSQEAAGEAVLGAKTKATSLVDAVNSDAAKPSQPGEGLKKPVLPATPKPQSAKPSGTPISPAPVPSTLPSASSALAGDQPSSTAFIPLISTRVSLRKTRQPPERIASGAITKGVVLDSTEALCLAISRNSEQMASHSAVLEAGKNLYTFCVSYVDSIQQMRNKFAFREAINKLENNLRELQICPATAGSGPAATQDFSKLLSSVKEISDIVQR
Experimental: (§3) ADP-Glo assay kit was purchased from Promega. Magnesium chloride (MgCl2), bovine serum albumin (BSA), ethylene glycol-bis(β-aminoethyl ether)-N,N,N′,N′-tetraacetic acid (EGTA), tween-20, 1,4-dithiothreitol (DTT) and dimethyl sulfoxide (DMSO) were purchased from Sigma-Aldrich. HEPES buffer was purchased from Gibco. ABL1 kinase and Abltide were purchased from Signalchem.
(§4) c-Abl kinase activity was measured by Promega’s ADP-Glo ® Assay. In this assay, His-tagged recombinant human ABL1 (0.25 ng/µl) is incubated with 5 µL of compounds (0.5% DMSO), 5 µL of Abltide (0.01 µg/µl) and 5 µL of ATP (25 µM) in buffer (50 mM HEPES,7.5; 10 mM MgCl2; 1 mM EGTA; 0.05% BSA; 0.01% Tween-20; 2 mM DTT.). The assay was started by incubating the reaction mixture in a 96-well plate at 30° C. for 30-min. After the incubation, 25 µL ADP-Glo reagent was added and the reaction was incubated at room temperature for 40-min to stop the reaction and degrade residual ATP. The ADP product was then converted to ATP by adding 50 µL per well of detection reagent. Luminescence was detected after 30-min room temperature incubation with the Molecular device I3X plate reader. The IC50 values were calculated from a series of percent inhibition values determined at a range of inhibitor concentration using software routines as implemented in the GraphPad Prism 7 software and Sigma Plot 13.0.
The target in experiment [5] is LRRK2 (WT) (Homo sapiens (Human), UniProt Q5S007). In words: LRRK2 kinase assay (Adapta). The class given is biochemical. The settings on record: 70 µM ATP, LRRKtide substrate. As for the experimental part:
as §1, §2

Experiment [6] addresses T1, His-tagged recombinant human ABL1. The experiment in a line: biochemical.
Experimental: as §3, §4

Chain of LRRK2 G2019S (Q5S007 whole entry G2019S): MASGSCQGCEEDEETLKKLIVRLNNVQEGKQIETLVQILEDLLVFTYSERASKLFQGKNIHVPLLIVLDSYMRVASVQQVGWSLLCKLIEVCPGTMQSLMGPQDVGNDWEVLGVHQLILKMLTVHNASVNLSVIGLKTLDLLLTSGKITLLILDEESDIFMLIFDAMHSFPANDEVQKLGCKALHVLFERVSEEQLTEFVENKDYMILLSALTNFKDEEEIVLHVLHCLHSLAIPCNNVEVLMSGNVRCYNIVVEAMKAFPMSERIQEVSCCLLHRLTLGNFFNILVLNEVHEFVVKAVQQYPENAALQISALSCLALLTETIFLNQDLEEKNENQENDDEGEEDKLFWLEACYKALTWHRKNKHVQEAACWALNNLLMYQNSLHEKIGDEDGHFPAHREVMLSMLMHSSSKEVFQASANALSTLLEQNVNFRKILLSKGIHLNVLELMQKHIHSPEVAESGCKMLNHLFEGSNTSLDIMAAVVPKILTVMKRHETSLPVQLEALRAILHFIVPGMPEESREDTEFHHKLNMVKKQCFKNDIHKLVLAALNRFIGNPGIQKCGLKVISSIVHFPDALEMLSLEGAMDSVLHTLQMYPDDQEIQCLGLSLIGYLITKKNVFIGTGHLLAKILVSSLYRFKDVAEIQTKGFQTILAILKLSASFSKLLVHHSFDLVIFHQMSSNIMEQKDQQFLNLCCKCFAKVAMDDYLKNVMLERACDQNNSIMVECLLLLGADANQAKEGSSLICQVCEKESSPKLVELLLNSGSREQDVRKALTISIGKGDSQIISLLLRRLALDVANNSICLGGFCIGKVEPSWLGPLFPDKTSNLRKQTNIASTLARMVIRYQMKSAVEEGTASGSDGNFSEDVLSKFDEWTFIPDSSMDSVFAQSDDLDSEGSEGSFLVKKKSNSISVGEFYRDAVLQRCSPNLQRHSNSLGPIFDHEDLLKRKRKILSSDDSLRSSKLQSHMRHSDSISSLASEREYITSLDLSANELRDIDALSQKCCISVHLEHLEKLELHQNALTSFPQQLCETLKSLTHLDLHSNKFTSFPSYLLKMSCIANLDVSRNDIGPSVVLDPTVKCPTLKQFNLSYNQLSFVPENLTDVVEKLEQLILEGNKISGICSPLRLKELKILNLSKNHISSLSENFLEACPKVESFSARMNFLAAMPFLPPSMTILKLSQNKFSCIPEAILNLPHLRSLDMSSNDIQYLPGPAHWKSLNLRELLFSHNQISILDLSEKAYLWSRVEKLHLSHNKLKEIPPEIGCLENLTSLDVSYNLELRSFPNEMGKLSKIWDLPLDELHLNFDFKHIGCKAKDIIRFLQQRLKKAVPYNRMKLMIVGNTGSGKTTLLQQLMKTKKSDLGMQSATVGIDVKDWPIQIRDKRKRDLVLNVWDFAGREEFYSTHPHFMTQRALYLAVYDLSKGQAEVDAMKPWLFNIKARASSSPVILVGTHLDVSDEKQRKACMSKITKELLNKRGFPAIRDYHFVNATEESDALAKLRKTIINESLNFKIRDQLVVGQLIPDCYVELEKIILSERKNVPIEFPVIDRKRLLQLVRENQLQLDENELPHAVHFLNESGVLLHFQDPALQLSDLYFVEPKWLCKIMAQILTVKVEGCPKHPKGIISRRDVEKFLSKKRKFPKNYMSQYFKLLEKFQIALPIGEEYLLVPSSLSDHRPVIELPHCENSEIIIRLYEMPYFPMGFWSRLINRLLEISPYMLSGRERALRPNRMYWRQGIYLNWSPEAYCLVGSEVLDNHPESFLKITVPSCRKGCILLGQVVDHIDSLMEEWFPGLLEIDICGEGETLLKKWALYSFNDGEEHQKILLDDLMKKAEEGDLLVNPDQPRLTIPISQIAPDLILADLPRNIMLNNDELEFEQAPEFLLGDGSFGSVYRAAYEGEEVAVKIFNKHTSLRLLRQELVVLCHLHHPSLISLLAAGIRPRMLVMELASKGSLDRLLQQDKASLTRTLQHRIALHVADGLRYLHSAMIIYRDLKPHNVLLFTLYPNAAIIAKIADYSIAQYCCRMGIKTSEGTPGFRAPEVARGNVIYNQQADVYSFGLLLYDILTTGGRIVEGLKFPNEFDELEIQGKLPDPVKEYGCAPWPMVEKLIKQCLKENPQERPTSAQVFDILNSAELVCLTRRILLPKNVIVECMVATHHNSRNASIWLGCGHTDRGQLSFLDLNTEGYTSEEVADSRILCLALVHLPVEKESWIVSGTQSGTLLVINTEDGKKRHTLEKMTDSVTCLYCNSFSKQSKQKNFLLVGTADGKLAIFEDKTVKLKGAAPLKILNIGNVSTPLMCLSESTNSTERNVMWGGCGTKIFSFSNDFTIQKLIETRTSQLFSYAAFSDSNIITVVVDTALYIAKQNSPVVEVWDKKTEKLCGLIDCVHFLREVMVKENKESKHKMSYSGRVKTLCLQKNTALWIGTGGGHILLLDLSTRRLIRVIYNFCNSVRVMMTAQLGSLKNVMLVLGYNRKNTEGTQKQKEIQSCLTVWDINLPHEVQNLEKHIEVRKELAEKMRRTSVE
Chain of LRRK2 (WT) (Q5S007 whole entry, species assumed): as the sequence (Q5S007 whole entry G2019S) above, with S2019G counted along it

In general, IC50 refers to the concentration that inhibits the measured activity by half. Take `O=C(Nc1cc2cc(-c3cnc4[nH]ccc4c3)ccn2n1)[C@@H]1C[C@@H]1F` [Example 1, (1S,2S)-N-(5-(1 H-pyrrolo[2,3-b]pyridin-5-yl)pyrazolo[1,5-a]pyridin-2-yl)-2-fluorocyclopropane-1-carboxamide]: the IC50 was 11 nM in experiment [1]; 187 nM in experiment [2]; 28 nM in experiment [3]; 0.71 nM in experiment [4]; 55.7 nM in experiment [5].
For `O=C(Nc1cc2cc(-c3cnc4[nH]ccc4c3Cl)ccn2n1)[C@@H]1C[C@@H]1F` [Example 2, (1S,2S)-N-(5-(4-chloro-1 H-pyrrolo[2,3-b]pyridin-5-yl)pyrazolo[1,5-a]pyridin-2-yl)-2-fluorocyclopropane-1-carboxamide], the IC50 in experiment [1] was 6.67 nM; in experiment [2], 68.6 nM; in experiment [3], 15 nM; in experiment [4], 7.6 nM; in experiment [5], 36.5 nM.
Turning to `Cc1c(-c2ccn3nc(NC(=O)C4CC4)cc3c2)cnc2[nH]ccc12` [Example 19, N-(5-(4-methyl-1H-pyrrolo[2,3-b]pyridin-5-yl)pyrazolo[1,5-a]pyridin-2-yl)cyclopropanecarboxamide], the IC50 in experiment [1] was 11.4 nM; in experiment [2], 82.9 nM; in experiment [6], 2.4 nM.
For `O=C(Nc1cc2cc(-c3cnc4[nH]ccc4c3Cl)ccn2n1)[C@H]1C[C@@H]1F` [Example 27, (1R,2S)-N-(5-(4-chloro-1H-pyrrolo[2,3-b]pyridin-5-yl)pyrazolo[1,5-a]pyridin-2-yl)-2-fluorocyclopropane-1-carboxamide], the IC50 in experiment [1] was determined as 15.1 nM; in experiment [2] it was 162 nM; in experiment [4], 12.4 nM.
For the molecule `O=C(Nc1cc2cc(-c3cnc4[nH]cc(Cl)c4c3Cl)ccn2n1)[C@@H]1C[C@@H]1F` [Example 29, (1S,2S)-N-(5-(3,4-dichloro-1H-pyrrolo[2,3-b]pyridin-5-yl)pyrazolo[1,5-a]pyridin-2-yl)-2-fluorocyclopropane-1-carboxamide], the IC50 in experiment [1] worked out at 15.4 nM; in experiment [2], 177 nM; in experiment [4], 4.3 nM.
As to `O=C(Nc1cc2cc(-c3cnc4[nH]cc(F)c4c3Cl)ccn2n1)[C@@H]1C[C@@H]1F` [Example 30, (1S,2S)-N-(5-(4-chloro-3-fluoro-1H-pyrrolo[2,3-b]pyridin-5-yl)pyrazolo[1,5-a]pyridin-2-yl)-2-fluorocyclopropane-1-carboxamide], the values for the IC50 in experiment [1], in experiment [2] and in experiment [4] were 10.2 nM, 107 nM and 7.2 nM, respectively.
